The IC50 is the midpoint of a concentration-inhibition curve.

Structures are written as SMILES.

T1 sequence (Q9Y5Y9 whole entry): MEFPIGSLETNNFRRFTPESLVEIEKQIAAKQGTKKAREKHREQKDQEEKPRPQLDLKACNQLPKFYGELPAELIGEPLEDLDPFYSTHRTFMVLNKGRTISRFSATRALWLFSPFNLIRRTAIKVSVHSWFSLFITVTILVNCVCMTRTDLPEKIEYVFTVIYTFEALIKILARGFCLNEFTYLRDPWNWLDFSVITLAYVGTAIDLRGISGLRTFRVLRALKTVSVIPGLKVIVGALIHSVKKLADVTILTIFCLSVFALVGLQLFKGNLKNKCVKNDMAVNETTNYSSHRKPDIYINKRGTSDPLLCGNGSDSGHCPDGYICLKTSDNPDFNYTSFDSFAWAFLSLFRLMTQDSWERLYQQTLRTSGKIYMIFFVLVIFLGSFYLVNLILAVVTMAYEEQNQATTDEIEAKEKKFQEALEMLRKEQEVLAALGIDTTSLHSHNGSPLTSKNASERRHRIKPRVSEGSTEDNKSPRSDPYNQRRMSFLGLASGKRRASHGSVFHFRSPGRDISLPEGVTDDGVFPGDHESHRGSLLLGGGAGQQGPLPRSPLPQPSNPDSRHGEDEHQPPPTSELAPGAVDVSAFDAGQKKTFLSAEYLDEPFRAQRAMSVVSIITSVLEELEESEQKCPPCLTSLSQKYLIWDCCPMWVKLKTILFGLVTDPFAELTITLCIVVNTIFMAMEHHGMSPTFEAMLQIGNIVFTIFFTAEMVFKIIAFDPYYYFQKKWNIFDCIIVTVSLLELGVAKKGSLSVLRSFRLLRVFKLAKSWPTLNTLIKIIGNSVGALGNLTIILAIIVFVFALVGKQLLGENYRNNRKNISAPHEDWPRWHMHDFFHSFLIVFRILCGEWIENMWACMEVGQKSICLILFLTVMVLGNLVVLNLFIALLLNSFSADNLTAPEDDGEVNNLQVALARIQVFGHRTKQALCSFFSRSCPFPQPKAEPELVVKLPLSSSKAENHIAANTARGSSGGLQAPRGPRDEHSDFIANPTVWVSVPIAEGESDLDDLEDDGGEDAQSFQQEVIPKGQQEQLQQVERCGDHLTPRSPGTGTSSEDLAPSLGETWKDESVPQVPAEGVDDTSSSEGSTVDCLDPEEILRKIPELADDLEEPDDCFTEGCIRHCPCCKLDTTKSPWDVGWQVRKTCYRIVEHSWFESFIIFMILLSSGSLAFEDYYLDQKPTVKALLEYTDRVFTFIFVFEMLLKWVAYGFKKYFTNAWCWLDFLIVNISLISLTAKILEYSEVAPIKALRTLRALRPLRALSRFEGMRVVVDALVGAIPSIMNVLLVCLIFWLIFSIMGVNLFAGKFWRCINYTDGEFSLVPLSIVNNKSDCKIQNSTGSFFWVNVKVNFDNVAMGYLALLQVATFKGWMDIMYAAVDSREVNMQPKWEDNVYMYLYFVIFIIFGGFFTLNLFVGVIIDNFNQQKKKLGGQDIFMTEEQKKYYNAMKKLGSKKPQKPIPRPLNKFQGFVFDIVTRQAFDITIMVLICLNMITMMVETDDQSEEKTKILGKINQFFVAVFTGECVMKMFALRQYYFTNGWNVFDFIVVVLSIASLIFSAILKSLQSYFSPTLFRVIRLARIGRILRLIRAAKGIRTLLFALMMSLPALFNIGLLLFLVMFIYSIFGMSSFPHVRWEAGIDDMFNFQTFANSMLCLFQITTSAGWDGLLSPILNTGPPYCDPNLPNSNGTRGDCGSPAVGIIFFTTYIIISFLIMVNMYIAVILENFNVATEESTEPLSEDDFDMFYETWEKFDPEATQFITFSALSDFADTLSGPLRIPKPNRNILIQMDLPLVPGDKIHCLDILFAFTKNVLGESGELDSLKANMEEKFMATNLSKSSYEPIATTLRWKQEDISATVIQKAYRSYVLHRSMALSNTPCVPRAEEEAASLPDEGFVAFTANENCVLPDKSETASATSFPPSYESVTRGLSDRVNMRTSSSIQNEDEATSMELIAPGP

This test concerns the target T1, human Nav1.8 channels (Homo sapiens, UniProt Q9Y5Y9).
T1 construct: expressed in transfected cells
Put plainly: Nav1.8 Qube automated patch-clamp assay. Format: cell-based. As to conditions: human Nav1.8 stably expressed in HEK 293 cells; whole-cell voltage clamp, room temperature; resting or inactivated state not specified; read-out: IC50 values (nM) for Examples in the Nav1.8 Qube Assay. The method in brief:
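Whole-cell patch clamp at room temperature on HEK293 cells stably expressing human Nav1.8. A 1 Hz train of ten 20 ms pulses to 10 mV from −90 mV holding, with −67 mV repolarization, was applied; first- and tenth-pulse peak currents gave resting and inactivated-state IC50s by Hill fitting.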
A general note: Patch clamp records ionic current or voltage across a cell membrane.
Turning to `NS(=O)(=O)c1cc(NC(=O)c2cc(C#CC3CC3)c(C(F)(F)F)nc2N2CCC(F)(F)CC2)ccn1` [Example 44, 5-(cyclopropylethynyl)-2-(4,4-difluoropiperidin-1-yl)-N-(2-sulfamoylpyridin-4-yl)-6-(trifluoromethyl)nicotinamide], the IC50 turned out to be 59 nM.
Turning to `N#Cc1noc(NC(=O)c2cc(C(F)(F)F)cnc2N2CCCCCC2)n1` [Example 45, 2-(azepan-1-yl)-N-(3-cyano-1,2,4-oxadiazol-5-yl)-5-(trifluoromethyl)pyridine-3-carboxamide], the IC50 was determined as 1790 nM.
Consider `NS(=O)(=O)c1cc(NC(=O)c2cc(C(F)(F)F)cnc2N2CCCC(Cl)(Cl)CC2)ccn1` [Example 51, 2-(4,4-Dichloroazepan-1-yl)-N-(2-sulfamoylpyridin-4-yl)-5-(trifluoromethyl)nicotinamide], for which the concentration for half-maximal inhibition (IC50) is 6.6 nM.
For the compound `C[C@@H]1CN(c2ncc(C(F)(F)F)cc2C(=O)Nc2ccnc(S(N)(=O)=O)c2)C[C@H](C)C1(F)F` [Example 52, 2-[(3S,5R)-4,4-difluoro-3,5-dimethyl-1-piperidyl]-N-(2-sulfamoyl-4-pyridyl)-5-(trifluoromethyl)pyridin-3-carboxamide], the IC50 turned out to be 2.8 nM.
The figure for `NS(=O)(=O)c1cc(NC(=O)c2cc(C(F)(F)F)cnc2N2C[C@@H]3[C@H](C2)C(F)(F)C3(F)F)ccn1` [Example 60, N-(2-sulfamoylpyridin-4-yl)-2-((1R,5S)-6,6,7,7-tetrafluoro-3-azabicyclo[3.2.0]heptan-3-yl)-5-(trifluoromethyl)nicotinamide] is 14 nM; for `NS(=O)(=O)c1cc(NC(=O)c2cc(C(F)(F)F)cnc2N2C[C@H]3CC[C@@H](C2)C3(F)F)ccn1` [Example 63, 2-((1R,5S)-8,8-difluoro-3-azabicyclo[3.2.1]octan-3-yl)-N-(2-sulfamoylpyridin-4-yl)-5-(trifluoromethyl)nicotinamide] it is 20 nM; for `NS(=O)(=O)c1cc(NC(=O)c2cc(C(F)(F)F)cnc2N2C[C@H]3CC[C@H]3C2)ccn1` [Example 68, 2-((1R,5S)-3-azabicyclo[3.2.0]heptan-3-yl)-N-(2-sulfamoylpyridin-4-yl)-5-(trifluoromethyl)nicotinamide] it is 29 nM.
The figure for `C[C@@H]1CN(c2ncc(C(F)(F)F)cc2C(=O)Nc2ccnc(S(N)(=O)=O)c2)C[C@H](C)[C@]1(C)O` [Example 75, 2-((3R,4s,5S)-4-hydroxy-3,4,5-trimethylpiperidin-1-yl)-N-(2-sulfamoylpyridin-4-yl)-5-(trifluoromethyl)nicotinamide] is 233 nM; for `NS(=O)(=O)c1cc(NC(=O)c2cc(C(F)(F)F)cnc2N2C[C@H]3C[C@@H](C2)C3(F)F)ccn1` [Example 76, 2-((1R,5S)-6,6-difluoro-3-azabicyclo[3.1.1]heptan-3-yl)-N-(2-sulfamoylpyridin-4-yl)-5-(trifluoromethyl)nicotinamide] it is 389 nM; for `C[C@H]1CN(c2ncc(C(F)(F)F)cc2C(=O)Nc2ccnc(S(N)(=O)=O)c2)CC[C@@H]1O` [Example 77, 2-[(3S,4S)-4-hydroxy-3-methyl-1-piperidyl]-N-(2-sulfamoyl-4-pyridyl)-5-(trifluoromethyl)pyridine-3-carboxamide] it is 2980 nM.
With `CC1CN(c2ncc(C(F)(F)F)cc2C(=O)Nc2ccnc(S(N)(=O)=O)c2)CC(C)C1O` [Example 78, 2-[(3S,4r,5R)-4-hydroxy-3,5-dimethyl-1-piperidyl]-N-(2-sulfamoyl-4-pyridyl)-5-(trifluoromethyl)pyridine-3-carboxamide], the IC50 came to 5080 nM.
In the case of `NS(=O)(=O)c1cc(NC(=O)c2cc(C(F)(F)F)cnc2N2CCc3sccc3C2)ccn1` [Example 79, 2-(6,7-dihydro-4H-thieno[3.2-c]pyridin-5-yl)-N-(2-sulfamoyl-4-pyridyl)-5-(trifluoromethyl)pyridin-3-carboxamide], the half-maximal inhibitory concentration (IC50) was determined as 21 nM.
The figure for `NS(=O)(=O)c1cc(NC(=O)c2cc(C(F)(F)F)cnc2N2CCCC(C(F)(F)F)C2)ccn1` (stereo not drawn) [Example 80, N-(2-sulfamoyl-4-pyridyl)-5-(trifluoromethyl)-2-[3-(trifluoromethyl)-1-piperidyl]pyridine-3-carboxamide] is 31 nM.
In the case of `NS(=O)(=O)c1cc(NC(=O)c2cc(C(F)(F)F)cnc2N2CCCC(c3cc(F)cc(F)c3)C2)ccn1` (stereo not drawn) [Example 81, 2-[3-(3,5-difluorophenyl)-1-piperidyl]-N-(2-sulfamoyl-4-pyridyl)-5-(trifluoromethyl)pyridine-3-carboxamide] it was 39 nM.
Take `NS(=O)(=O)c1cc(NC(=O)c2cc(C(F)(F)F)cnc2N2CCC(C(F)(F)F)CC2)ccn1` [Example 82, N-(2-sulfamoyl-4-pyridyl)-5-(trifluoromethyl)-2-[4-(trifluoromethyl)-1-piperidyl]pyridine-3-carboxamide]: the half-maximal inhibitory concentration (IC50) is 54 nM.
In the case of `NS(=O)(=O)c1cc(NC(=O)c2cc(C(F)(F)F)cnc2N2CCCC(Cc3ccc(C(F)(F)F)cc3)C2)ccn1` (stereo not drawn) [Example 83, N-(2-sulfamoyl-4-pyridyl)-5-(trifluoromethyl)-2-[3-[[4-(trifluoromethyl)phenyl]methyl]-1-piperidyl]pyridine-3-carboxamide] it was 114 nM; in that of `NS(=O)(=O)c1cc(NC(=O)c2cc(C(F)(F)F)cnc2N2CCSCC2)ccn1` [Example 84, N-(2-sulfamoyl-4-pyridyl)-2-thiomorpholino-5-(trifluoromethyl)pyridine-3-carboxamide], 147 nM; in that of `NS(=O)(=O)c1cc(NC(=O)c2cc(C(F)(F)F)cnc2N2CCC(c3ccc(C(F)(F)F)cc3)C2)ccn1` (stereo not drawn) [Example 85, N-(2-sulfamoyl-4 pyridyl)-5-(trifluoromethyl)-2-[3-[4-(trifluoromethyl)phenyl]pyrrolidin-1-yl]pyridine-3-carboxamide], 152 nM.
`NS(=O)(=O)c1cc(NC(=O)c2cc(C(F)(F)F)cnc2N2CCn3c(Cc4ccccc4)cnc3C2)ccn1` [Example 86, 2-(3-benzyl-6,8-dihydro-5H-imidazo[1,2-a]pyrazin-7-yl)-N-(2-sulfamoyl-4-pyridyl)-5-(trifluoromethyl)pyridine-3-carboxamide]: the IC50 came to 172 nM.
`CC1(C)CN(c2ncc(C(F)(F)F)cc2C(=O)Nc2ccnc(S(N)(=O)=O)c2)CCN1CC(F)(F)F` [Example 87, 2-[3,3-dimethyl-4-(2,2,2-trifluoroethyl)piperazin-1-yl]-N-(2-sulfamoyl-4-pyridyl)-5-(trifluoromethyl)pyridine-3-carboxamide]: the half-inhibitory concentration (IC50) was 223 nM.
The figure for `CC1(C)CN(c2ncc(C(F)(F)F)cc2C(=O)Nc2ccnc(S(N)(=O)=O)c2)CCO1` [Example 88, 2-(2,2-dimethylmorpholin-4-yl)-N-(2-sulfamoyl-4-pyridyl)-5-(trifluoromethyl)pyridine-3-carboxamide] is 275 nM; for `NS(=O)(=O)c1cc(NC(=O)c2cc(C(F)(F)F)cnc2N2CCc3cccc(C(F)(F)F)c3C2)ccn1` [Example 89, N-(2-sulfamoyl-4-pyridyl)-5-(trifluoromethyl)-2-[8-(trifluoromethyl)-3,4-dihydro-1H-isoquinolin-2-yl]pyridine-3-carboxamide] it is 275 nM; for `NS(=O)(=O)c1cc(NC(=O)c2cc(C(F)(F)F)cnc2N2Cc3cccc(OC(F)(F)F)c3C2)ccn1` [Example 90, N-(2-sulfamoyl-4-pyridyl)-2-[4-(trifluoromethoxy)isoindolin-2-yl]-5-(trifluoromethyl)pyridine-3-carboxamide] it is 294 nM.
Consider `NS(=O)(=O)c1cc(NC(=O)c2cc(C(F)(F)F)cnc2N2CCOC(c3ccc(C(F)(F)F)cc3)C2)ccn1` (stereo not drawn) [Example 91, N-(2-sulfamoyl-4-pyridyl)-5-(trifluoromethyl)-2-[2-[4-(trifluoromethyl)phenyl]morpholin-4-yl]pyridine-3-carboxamide], for which the IC50 amounted to 616 nM.
The figure for `NS(=O)(=O)c1cc(NC(=O)c2cc(C(F)(F)F)cnc2N2CC(F)(F)C(F)(F)C2)ccn1` [Example 92, N-(2-sulfamoyl-4-pyridyl)-2-(3,3,4,4-tetrafluoropyrrolidin-1-yl)-5-(trifluoromethyl)pyridine-3-carboxamide] is 659 nM; for `NS(=O)(=O)c1cc(NC(=O)c2cc(C(F)(F)F)cnc2N2CC(C(F)(F)F)C2)ccn1` [Example 93, N-(2-sulfamoyl-4-pyridyl)-5-(trifluoromethyl)-2-[3-(trifluoromethyl)azetidin-1-yl]pyridine-3-carboxamide] it is 707 nM.
The figure for `NS(=O)(=O)c1cc(NC(=O)c2cc(C(F)(F)F)cnc2N2CCC(n3cccn3)C2)ccn1` (stereo not drawn) [Example 94, 2-(3-pyrazol-1-ylpyrrolidin-1-yl)-N-(2-sulfamoyl-4-pyridyl)-5-(trifluoromethyl)pyridine-3-carboxamide] is 745 nM.
In the case of `NS(=O)(=O)c1cc(NC(=O)c2cc(C(F)(F)F)cnc2N2CCCCC2c2ccc(F)cc2)ccn1` (stereo not drawn) [Example 95, 2-[2-(4-fluorophenyl)-1-piperidyl]-N-(2-sulfamoyl-4-pyridyl)-5-(trifluoromethyl)pyridine-3-carboxamide] it was 1420 nM.
In the case of `NS(=O)(=O)c1cc(NC(=O)c2cc(C(F)(F)F)cnc2N2CCC3OCCC32)ccn1` (stereo not drawn) [Example 96, 2-(2,3,3,a,5,6,6a-hexahydrofuro[3,2-b]pyrrol-4-yl)-N-(2-sulfamoyl-4-pyridyl)-5-(trifluoromethyl)pyridine-3-carboxamide], the half-inhibitory concentration (IC50) worked out at 1620 nM.
`NS(=O)(=O)c1cc(NC(=O)c2cc(C(F)(F)F)cnc2N2CC(Oc3ccc(C(F)(F)F)cc3)C2)ccn1` [Example 97, N-(2-sulfamoyl-4-pyridyl)-5-(trifluoromethyl)-2-[3-[4-(trifluoromethyl)phenoxy]azetidin-1-yl]pyridine-3-carboxamide]: the IC50 was 1900 nM.
